Laboratory results as given in patent US20250213532A1, “5-METHOXY-N,N-[…][…] THE TREATMENT OF BIPOLAR DISORDER” (GH RESEARCH IRELAND LIMITED, priority 2022, published 2025).

Tests used:
[1] = system: patients with clinically diagnosed postpartum depression (PPD); test: Clinical trial of inhaled 5-MeO-DMT in postpartum depression: MADRS; assay type: in vivo, human; conditions: one PPD patient; for MADRS Concentration Difficulties improvement / MADRS Concentration Difficulties score / MADRS Reduced appetite improvement / MADRS Reduced appetite score / MADRS Suicidal Thoughts improvement / MADRS Suicidal Thoughts score: baseline 0; for MADRS Inability to Feel improvement / MADRS Inability to Feel score / MADRS Lassitude improvement / MADRS Lassitude score: baseline 3; for MADRS Pessimistic Thoughts improvement / MADRS Pessimistic Thoughts score / MADRS Reported sadness improvement / MADRS Reported sadness score: baseline 4; for MADRS Apparent sadness improvement / MADRS Apparent sadness score / MADRS Inner Tension improvement / MADRS Inner Tension score / MADRS Reduced Sleep improvement / MADRS Reduced Sleep score: baseline 5
Description: The patient completed all planned visit days.

[2] = Acute psychedelic effects after inhalation; set-up: species or system human; conditions: in vivo
[3] = system: patients with treatment-resistant major depressive disorder (TRD); test: Phase 1/2 clinical trial of inhaled 5-MeO-DMT in TRD: MADRS; assay type: in vivo, human
Protocol: When assessing a clinical response at an early timepoint after drug administration (e.g. at 2 hours) based on endpoints which have been developed for a longer recall period (e.g. normally 7 days for the MADRS), a rational modification of such endpoint (e.g. changing the MADRS recall period to 2 hours and carrying forward the sleep item recorded at baseline before drug administration) may be applied. The same applies with respect to the BDRS (in particular the item sleep disturbance) and any other scale applied herein, unless a recall period is specifically indicated.
The Montgomery-Asberg Depression Rating Scale (MADRS) is a ten-item diagnostic questionnaire used to measure the severity of depressive episodes in patients with mood disorders (Montgomery, S. A., & Asberg, M. (1979). A new depression scale designed to be sensitive to change. The British Journal of Psychiatry 134, p.382). It was designed as an adjunct to the Hamilton Rating Scale for Depression (HAM-D), which would be more sensitive to the changes brought on by antidepressants and other forms of treatment. Higher MADRS score indicates more severe depression. The items considered are apparent sadness; reported sadness; inner tension; reduced sleep; reduced appetite; concentration difficulties; lassitude; inability to feel; pessimistic thoughts; and suicidal thoughts, and each item yields a score of 0 to 6. The overall score ranges from 0 to 60. Score ranges used herein for assessing the severity of depressive episodes in patients with bipolar disorder are 13-18 for “mildly ill”, 19-23 for “moderately ill”, 24-36 for “markedly ill”, 37-39 for “severely ill”, and 40 for “extremely ill” (Thase, 2021).
Patients were assigned to different groups.
This trial was designed in two parts.

[4] = 12 mg n=4, 2 hours, baseline 13
[5] = 12 mg n=4, 2 hours, baseline 16

COc1ccc2[nH]cc(CCN(C)C)c2c1 [5-MeO-DMT]
MADRS remission (total score equal or less than 10) [1]: fulfilled standard criteria | MADRS response (at least 50% improvement from baseline) [1]: fulfilled standard criteria | MADRS Concentration Difficulties improvement ([1]; 2 hr): 0 | MADRS Concentration Difficulties score ([1]; 2 hr): 0 | MADRS Reduced appetite improvement ([1]; 2 hr): 0 | MADRS Reduced appetite score ([1]; 2 hr): 0 | MADRS Suicidal Thoughts improvement ([1]; 2 hr): 0 | MADRS Suicidal Thoughts score ([1]; 2 hr): 0 | MADRS Inability to Feel improvement ([1]; 2 hr): 3 | MADRS Inability to Feel score ([1]; 2 hr): 0 | MADRS Lassitude improvement ([1]; 2 hr): 3 | MADRS Lassitude score ([1]; 2 hr): 0 | MADRS Pessimistic Thoughts improvement ([1]; 2 hr): 4 | MADRS Pessimistic Thoughts score ([1]; 2 hr): 0 | MADRS Reported sadness improvement ([1]; 2 hr): 4 | MADRS Reported sadness score ([1]; 2 hr): 0 | MADRS Apparent sadness improvement ([1]; 2 hr): 5 | MADRS Apparent sadness score ([1]; 2 hr): 0 | MADRS Inner Tension improvement ([1]; 2 hr): 5 | MADRS Inner Tension score ([1]; 2 hr): 0 | MADRS Reduced Sleep improvement ([1]; 2 hr): 0 | MADRS Reduced Sleep score ([1]; 2 hr): 5 | MADRS Concentration Difficulties improvement ([1]; Day 1): 0 | MADRS Concentration Difficulties score ([1]; Day 1): 0 | MADRS Reduced appetite improvement ([1]; Day 1): 0 | MADRS Reduced appetite score ([1]; Day 1): 0 | MADRS Suicidal Thoughts improvement ([1]; Day 1): 0 | MADRS Suicidal Thoughts score ([1]; Day 1): 0 | MADRS Inability to Feel improvement ([1]; Day 1): 3 | MADRS Inability to Feel score ([1]; Day 1): 0 | MADRS Lassitude improvement ([1]; Day 1): 3 | MADRS Pessimistic Thoughts improvement ([1]; Day 1): 4 | MADRS Pessimistic Thoughts score ([1]; Day 1): 0 | MADRS Reported sadness improvement ([1]; Day 1): 4 | MADRS Reported sadness score ([1]; Day 1): 0 | MADRS Apparent sadness improvement ([1]; Day 1): 5 | MADRS Apparent sadness score ([1]; Day 1): 0 | MADRS Inner Tension improvement ([1]; Day 1): 5 | MADRS Inner Tension score ([1]; Day 1): 0 | MADRS Reduced Sleep improvement ([1]; Day 1): 5 | MADRS Reduced Sleep score ([1]; Day 1): 0 | MADRS Concentration Difficulties improvement ([1]; Day 7): 0 | MADRS Concentration Difficulties score ([1]; Day 7): 0 | MADRS Reduced appetite improvement ([1]; Day 7): 0 | MADRS Reduced appetite score ([1]; Day 7): 0 | MADRS Suicidal Thoughts improvement ([1]; Day 7): 0 | MADRS Suicidal Thoughts score ([1]; Day 7): 0 | MADRS Inability to Feel improvement ([1]; Day 7): 3 | MADRS Inability to Feel score ([1]; Day 7): 0 | MADRS Lassitude improvement ([1]; Day 7): 3 | MADRS Lassitude score ([1]; Day 7): 0 | MADRS Pessimistic Thoughts improvement ([1]; Day 7): 4 | MADRS Pessimistic Thoughts score ([1]; Day 7): 0 | MADRS Reported sadness improvement ([1]; Day 7): 4 | MADRS Reported sadness score ([1]; Day 7): 0 | MADRS Apparent sadness improvement ([1]; Day 7): 5 | MADRS Apparent sadness score ([1]; Day 7): 0 | MADRS Inner Tension improvement ([1]; Day 7): 4 | MADRS Inner Tension score ([1]; Day 7): 1 | MADRS Reduced Sleep improvement ([1]; Day 7): 5 | MADRS Reduced Sleep score ([1]; Day 7): 0 | Durability of clinical response ([1]; IDR 6 mg then 12 mg): sustained over the 7-day follow-up period | Time to clinical response after administration ([1]; IDR 6 mg then 12 mg): ≤ 2 h | Onset of effect [2]: merely seconds | MADRS Suicidal Thoughts percentage improvement ([3]; 12 mg n=4, 2 hours, baseline 8): 63% | MADRS Suicidal Thoughts score (sum) ([3]; 12 mg n=4, 2 hours, baseline 8): 3 | MADRS Inner Tension percentage improvement [3, 4]: 85% | MADRS Inner Tension score (sum) [3, 4]: 2 | MADRS Concentration Difficulties percentage improvement [3, 5]: 56% | MADRS Concentration Difficulties score (sum) [3, 5]: 7 | MADRS Inability to Feel percentage improvement [3, 5]: 44% | MADRS Inability to Feel score (sum) [3, 5]: 9 | MADRS Lassitude percentage improvement [3, 5]: 38% | MADRS Lassitude score (sum) [3, 5]: 10 | MADRS Pessimistic Thoughts percentage improvement [3, 5]: 50% | MADRS Pessimistic Thoughts score (sum) [3, 5]: 8 | MADRS Suicidal Thoughts score (sum) ([3]; 12 mg n=4, Day 1, baseline 8): 5 | MADRS Reduced Sleep score (sum) ([3]; 12 mg n=4, Day 1, baseline 12): 10 | MADRS Inner Tension percentage improvement ([3]; 12 mg n=4, Day 1, baseline 13): 77% | MADRS Inner Tension score (sum) ([3]; 12 mg n=4, Day 1, baseline 13): 3 | MADRS Concentration Difficulties percentage improvement ([3]; 12 mg n=4, Day 1, baseline 16): 88% | MADRS Concentration Difficulties score (sum) ([3]; 12 mg n=4, Day 1, baseline 16): 2 | MADRS Inability to Feel score (sum) ([3]; 12 mg n=4, Day 1, baseline 16): 1 | MADRS Lassitude percentage improvement ([3]; 12 mg n=4, Day 1, baseline 16): 100% | MADRS Lassitude score (sum) ([3]; 12 mg n=4, Day 1, baseline 16): 0 | MADRS Pessimistic Thoughts percentage improvement ([3]; 12 mg n=4, Day 1, baseline 16): 56% | MADRS Pessimistic Thoughts score (sum) ([3]; 12 mg n=4, Day 1, baseline 16): 7 | MADRS Suicidal Thoughts score (sum) ([3]; 12 mg n=4, Day 7, baseline 8): 7 | MADRS Reduced Sleep score (sum) ([3]; 12 mg n=4, Day 7, baseline 12): 6 | MADRS Inner Tension percentage improvement ([3]; 12 mg n=4, Day 7, baseline 13): 62% | MADRS Inner Tension score (sum) ([3]; 12 mg n=4, Day 7, baseline 13): 5 | MADRS Concentration Difficulties percentage improvement ([3]; 12 mg n=4, Day 7, baseline 16): 81% | MADRS Concentration Difficulties score (sum) ([3]; 12 mg n=4, Day 7, baseline 16): 3 | MADRS Inability to Feel score (sum) ([3]; 12 mg n=4, Day 7, baseline 16): 1 | MADRS Lassitude percentage improvement ([3]; 12 mg n=4, Day 7, baseline 16): 81% | MADRS Lassitude score (sum) ([3]; 12 mg n=4, Day 7, baseline 16): 3 | MADRS Pessimistic Thoughts percentage improvement ([3]; 12 mg n=4, Day 7, baseline 16): 50% | MADRS Pessimistic Thoughts score (sum) ([3]; 12 mg n=4, Day 7, baseline 16): 8 | MADRS Suicidal Thoughts percentage improvement ([3]; IDR n=8, 2 hours, baseline 11): 73% | MADRS Suicidal Thoughts score (sum) ([3]; IDR n=8, 2 hours, baseline 11): 3 | MADRS Inner Tension percentage improvement ([3]; IDR n=8, 2 hours, baseline 26): 58% | MADRS Inner Tension score (sum) ([3]; IDR n=8, 2 hours, baseline 26): 11 | MADRS Lassitude percentage improvement ([3]; IDR n=8, 2 hours, baseline 27): 63% | MADRS Lassitude score (sum) ([3]; IDR n=8, 2 hours, baseline 27): 10 | MADRS Pessimistic Thoughts percentage improvement ([3]; IDR n=8, 2 hours, baseline 28): 75% | MADRS Pessimistic Thoughts score (sum) ([3]; IDR n=8, 2 hours, baseline 28): 7 | MADRS Concentration Difficulties percentage improvement ([3]; IDR n=8, 2 hours, baseline 30): 63% | MADRS Concentration Difficulties score (sum) ([3]; IDR n=8, 2 hours, baseline 30): 11 | MADRS Inability to Feel percentage improvement ([3]; IDR n=8, 2 hours, baseline 36): 67% | MADRS Inability to Feel score (sum) ([3]; IDR n=8, 2 hours, baseline 36): 12 | MADRS Suicidal Thoughts score (sum) ([3]; IDR n=8, Day 1, baseline 11): 1 | MADRS Reduced Sleep score (sum) ([3]; IDR n=8, Day 1, baseline 25): 12 | MADRS Inner Tension percentage improvement ([3]; IDR n=8, Day 1, baseline 26): 77% | MADRS Inner Tension score (sum) ([3]; IDR n=8, Day 1, baseline 26): 6 | MADRS Lassitude percentage improvement ([3]; IDR n=8, Day 1, baseline 27): 81% | MADRS Lassitude score (sum) ([3]; IDR n=8, Day 1, baseline 27): 5 | MADRS Pessimistic Thoughts percentage improvement ([3]; IDR n=8, Day 1, baseline 28): 86% | MADRS Pessimistic Thoughts score (sum) ([3]; IDR n=8, Day 1, baseline 28): 4 | MADRS Concentration Difficulties percentage improvement ([3]; IDR n=8, Day 1, baseline 30): 97% | MADRS Concentration Difficulties score (sum) ([3]; IDR n=8, Day 1, baseline 30): 1 | MADRS Inability to Feel score (sum) ([3]; IDR n=8, Day 1, baseline 36): 2 | MADRS Suicidal Thoughts score (sum) ([3]; IDR n=8, Day 7, baseline 11): 3 | MADRS Reduced Sleep score (sum) ([3]; IDR n=8, Day 7, baseline 25): 9 | MADRS Inner Tension percentage improvement ([3]; IDR n=8, Day 7, baseline 26): 54% | MADRS Inner Tension score (sum) ([3]; IDR n=8, Day 7, baseline 26): 12 | MADRS Lassitude percentage improvement ([3]; IDR n=8, Day 7, baseline 27): 89% | MADRS Lassitude score (sum) ([3]; IDR n=8, Day 7, baseline 27): 3 | MADRS Pessimistic Thoughts percentage improvement ([3]; IDR n=8, Day 7, baseline 28): 89% | MADRS Pessimistic Thoughts score (sum) ([3]; IDR n=8, Day 7, baseline 28): 3 | MADRS Concentration Difficulties percentage improvement ([3]; IDR n=8, Day 7, baseline 30): 70% | MADRS Concentration Difficulties score (sum) ([3]; IDR n=8, Day 7, baseline 30): 9 | MADRS Inability to Feel score (sum) ([3]; IDR n=8, Day 7, baseline 36): 6
